Test results as given in patent US20150031674A1, “SERINE/THREONINE KINASE INHIBITORS” (GENENTECH, INC., priority 2013, published 2015).

What was measured:
[1] = biological target: human recombinant PAK1-KD protein (Homo sapiens, UniProt Q13153); test: PAK1-KD (Kinase Domain) IC50 Zlyte Assay (FRET peptide substrate phosphorylation); settings: Z'-LYTE, Biological Example 1
Description: PAK1-KD (Kinase Domain) IC50 Zlyte Assay Protocol
Activity of human recombinant PAK1-KD protein may be assessed in vitro by assay of the phosphorylation of a FRET peptide substrate. Catalytically active human recombinant PAK1-KD protein is obtained by purification from Tini cells infected with a human PAK1-KD recombinant baculovirus expression vector.
The activity/inhibition of PAK1-KD was estimated by measuring the phosphorylation of a FRET peptide substrate (Ser/Thr19) labeled with Coumarin and Fluorescein using Z′-LYTE™ assay (Invitrogen). The peptide substrate is a consensus sequence ([sequence]) based on various PAK substrates reported in the scientific literature. […] Incubations were carried out at 22° C. in black polypropylene 384-well plates (Corning Costar).

[2] = test system: group I PAKs in EBC1 cells (MEK1 phosphorylation at S298); test: Cellular PAK IC50 Assay: MEK1 phosphorylation at S298 by HTRF; type: cell-based; settings: Homo sapiens, EBC-1, 2 h treatment, media containing 0.1% FBS, phospho-MEK1 (S298) HTRF
Experimental: Cellular PAK IC50 Assay Protocol
Group I PAKs (PAK1-3) are activated upon binding to the Rho GTPases, Rac1 and Cdc42. Activated group I PAKs phosphorylate MEK1 at Serine 298 (S298), one of the two sites in the catalytic domain that is important for stable association between Raf and MEK1 and subsequent MAPK activation. The inhibition of group I PAKs in EBC1 cells is assessed by detecting changes in the level of MEK1 phosphorylation at S298 using homogenous time-resolved fluorescence (HTRF). Inhibitory activity was estimated by treating 2×10^4 EBC1 cells for 2 h with PAK inhibitors in media containing 0.1% FBS. Following inhibitor treatment, cells were lysed with 25 μL of 1× cellular kinase lysis buffer (Cisbio) containing 1× cellular kinase blocking reagent (Cisbio). Cellular lysis was carried out at 4° C. for 2 h with constant shaking before lysate (16 μL) was transferred to white 384-well ProxiPlates™ (Perkin Elmer). Anti-total MEK1 antibody labeled with Europium cryptate donor (1 ng/well) (Cell Signaling Technologies catalog number 2352) and anti-phospho MEK1 (S298) antibody labeled with d2 acceptor (Cell Signaling Technologies catalog number 9128) (10 ng/well) were prepared in 1× detection buffer (CisBio) and added to each well of the assay plate and allowed to incubate at RT overnight. The following day the fluorescence emission from each well was measured in EnVision® (Perkin Elmer) at an excitation of 330 nm and dual emission wavelengths of 615 nm and 665 nm. The signal in each well at 665 nm was multiplied by 10,000 and divided by the signal in the same well at 615 nm to obtain a ratio. Ratio values ([665·10,000]÷615) were plotted as a function of the concentration of compound to determine IC50 values.

Chain of human recombinant PAK1-KD protein (Q13153 270-521 limits assumed): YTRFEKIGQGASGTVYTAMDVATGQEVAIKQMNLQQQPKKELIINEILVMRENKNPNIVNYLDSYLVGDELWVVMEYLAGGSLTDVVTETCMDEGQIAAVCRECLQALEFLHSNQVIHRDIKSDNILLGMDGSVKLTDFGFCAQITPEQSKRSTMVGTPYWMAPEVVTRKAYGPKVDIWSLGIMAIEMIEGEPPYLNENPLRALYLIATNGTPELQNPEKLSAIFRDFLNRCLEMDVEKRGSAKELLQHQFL

Compound: CCNc1ncc2cc(-c3ccc(-c4cncc(C)n4)cc3Cl)c(=O)n(CCOC3CNC3)c2n1 [Example I-11, 8-(2-(Azetidin-3-yloxy)ethyl)-6-(2-chloro-4-(6-methylpyrazin-2-yl)phenyl)-2-(ethylamino)pyrido[2,3-d]pyrimidin-7(8H)-one]
- Ki [1]: 0.00694 µM
- IC50 [2]: 0.189 µM

Compound: CCNc1ncc2cc(-c3ccc(-c4cccc(C)n4)cc3Cl)c(=O)n(CC3CCNCC3)c2n1 [Example I-44, 6-(2-Chloro-4-(6-methylpyridin-2-yl)phenyl)-2-(ethylamino)-8-(piperidin-4-ylmethyl)pyrido[2,3-d]pyrimidin-7(8H)-one]
- Ki [1]: 0.0046 µM
- IC50 [2]: 0.0723 µM

Compound: CCNc1ncc2cc(-c3ccc(-c4cncc(C)n4)cc3Cl)c(=O)n(CCOC3CCNC3)c2n1 (single isomer, unassigned) [Example I-52]
- Ki [1]: 0.0056 µM
- IC50 [2]: 0.156 µM

Compound: Cc1cccc(-c2ccc(-c3cc4cnc(NC5COC5)nc4n(CCOCCN)c3=O)c(C)c2)n1 [Example I-108, 8-[2-(2-aminoethoxy)ethyl]-6-[2-methyl-4-(6-methyl-2-pyridyl)phenyl]-2-(oxetan-3-ylamino)pyrido[2,3-d]pyrimidin-7-one]
- Ki [1]: 0.0025 µM
- IC50 [2]: 0.0835 µM

Compound: CNc1ncc2cc(-c3ccc(-c4cncc(C)n4)cc3Cl)c(=O)n(CCCN)c2n1 [Example I-18, 8-(3-Aminopropyl)-6-[2-chloro-4-(6-methylpyrazin-2-yl)phenyl]-2-(methylamino)pyrido[2,3-d]pyrimidin-7-one]
- Ki [1]: 0.0137 µM
- IC50 [2]: 0.508 µM
